Format in all cases: cell-based
For series [1], the system named is human PBMCs. Kind of series: Human PBMC co-culture cytokine secretion assay with EphA2-expressing tumor cells (MC38, HT-1080, HT29). The settings on record: human PBMC-MC38 co-culture. Here is the method:
[…] MC38 were cultured in Dulbecco's Modified Eagle Medium supplemented with 10% heat inactivated Fetal Bovine Serum (FBS), 1× Penicillin/Streptomycin, 10 mM HEPES, and 2 mM L-Glutamine (referred to as R10 medium). Frozen PBMCs from healthy human donors were thawed and washed once in room temperature PBS with benzonase, and then resuspended in RPMI supplemented with 10% heat inactivated Fetal Bovine Serum (FBS), 1× Penicillin/Streptomycin, 10 mM HEPES, and 2 mM L-Glutamine (herein referred to as R10 medium). 100 μl of PBMCs (1,000,000 PBMCs/ml) and 100 μl of tumor cells (100,000 tumor cells/ml) (Effector:Target cell ratio (E:T) 10:1) were plated in each well of a 96 well flat bottom plate for the co-culture assay. 100 ng/ml of soluble anti-CD3 mAb (clone OKT3) was added to the culture on day 0 to stimulate human PBMCs. Test, control compounds, or vehicle controls were diluted in R10 media and 50 μL was added to respective wells to bring the final volume per well to 250 μL. Plates were covered with a breathable film and incubated in a humidified chamber at 37° C. with 5% CO2 for two days. […] Briefly, the standards and samples were added to a black 96 well plate. Microparticle cocktail (provided in Luminex kit, R&D Systems) was added and shaken for 2 hours at room temperature. The plate was washed 3 times using a magnetic holder. Biotin cocktail was then added to the plate and shaken for 1 hour at RT. The plate was washed 3 times using a magnetic holder. Streptavidin cocktail was added to the plate and shaken for 30 minutes at RT. The plates were washed 3 times using a magnetic holder, resuspended in 100 μL of wash buffer, shaken for 2 minutes at RT, and read using the Luminex 2000. Raw data were analyzed using built-in Luminex software to generate standard curves and interpolate protein concentrations, all other data analyses and graphing were performed using Excel and Prism software. Data represents one study with three independent donor PBMCs tested in experimental duplicates.
Similarly, PBMCs from healthy donors were co-cultured with EphA2 expressing cancer cells (MC38 and HT-1080) at a ratio of 5:1 in presence of anti-CD3 and BCY13272. […]

Series [2] addresses T1, CD137 (Homo sapiens, UniProt Q07011). Kind of series: CD137 reporter assay (Promega, Jurkat cells) in co-culture with EphA2-expressing tumor cells (A549, PC3, HT29). On the set-up: host or cells: Jurkat reporter cells. In short, it runs like this: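 Readout is Bio-Glo luminescence after 6 h, 37° C co-culture of CD137 reporter Jurkat cells, target tumor cells (EphA2: A549, PC3, HT29; PD-L1: RKO) and titrated test articles in 1% FBS RPMI. EC50 (nM) and maximal induction come from fold change over untreated co-culture.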

For series [3], the target named is T1, CD137. The experiment in a line: CD137 reporter assay (Promega CD137 luciferase reporter, Jurkat cells) in co-culture with Nectin-4-expressing tumor cells. On the set-up: host or cells: Jurkat reporter cells. (In a reporter assay the amount or activity of a reporter protein is the signal.)
The mark [4] stands for this setting: co-culture with HT1376, Table 2A.

What is called EC50 is the concentration giving half of the maximal effect.

Like-named read-outs stand apart in the source and are kept apart here. Starred links: 1 amine or outer side, 2 acyl side, 3 side chain; linkers in the order of their positions; H or OH if unused. Positions of bridges follow the written chain, without caps; N, C: chain ends. Non-standard residues stand in square brackets, D forms with d. Chains are numbered I, II in the order given. X1 = O=C(CCOCCOCCOCCN(CCOCCOCCOCCn1cc(CCC(=O)[*:2])nn1)CCOCCOCCOCCn1cc(CCC(=O)[*:3])nn1)[*:1]; TATA = O=C(CC[*:1])N1CN(C(=O)CC[*:2])CN(C(=O)CC[*:3])C1; Dip = N[C@H](C(=O)O)C(c1ccccc1)c1ccccc1; Hyp = O=C(O)[C@@H]1C[C@@H](O)CN1; hArg = N=C(N)NCCCC[C@H](N)C(=O)O; tBuAla = CC(C)(C)C[C@H](N)C(=O)O; Nle = CCCC[C@H](N)C(=O)O

T1 sequence (Q07011 24-255): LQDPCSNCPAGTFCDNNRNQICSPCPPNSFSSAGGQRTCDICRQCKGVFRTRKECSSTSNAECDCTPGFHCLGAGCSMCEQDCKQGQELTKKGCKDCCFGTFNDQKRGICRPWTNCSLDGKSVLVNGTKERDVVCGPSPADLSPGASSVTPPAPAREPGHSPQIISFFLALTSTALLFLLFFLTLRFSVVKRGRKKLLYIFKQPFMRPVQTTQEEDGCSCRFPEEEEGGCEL

Consider “I: A[hArg]DC[Hyp]LVNPLCL[Dip]P[dD]WTC-NH2 / II: Ac-C[tBuAla]PE[dK]PYCFADPY[Nle]CA-NH2 / III: Ac-C[tBuAla]PE[dK]PYCFADPY[Nle]CA-NH2 (linker I:4-I:11-I:18, II:1-II:8-II:15, III:1-III:8-III:15 via TATA; linker I:N-II:5-III:5 via X1) [BCY13047]”, for which the EC50 in series [1] (Donor 1, 48 h incubation, read-out: Donor 1 EC50 of IFNγ secretion) amounted to 0.31 nM; in series [1] (Donor 2, 48 h incubation, read-out: Donor 2 EC50 of IFNγ secretion), 0.3 nM; in series [2] (EC50, CD137 reporter coculture assay with PC3 tumor cells) it was 0.07 nM. Further, the “Emax (fold induction over background)” value in series [2] (CD137 reporter coculture assay with PC3 tumor cells) is reported as 46.43.
`CCCC[C@@H]1NC(=O)[C@H](Cc2ccc(O)cc2)NC(=O)[C@@H]2CCCN2C(=O)[C@H](CC(=O)O)NC(=O)[C@H](C)NC(=O)[C@H](Cc2ccccc2)NC(=O)[C@@H]2CSCCC(=O)N3CN(CN(C3)C(=O)CCSC[C@@H](C(=O)N[C@@H](C)C(N)=O)NC1=O)C(=O)CCSC[C@H](NC(C)=O)C(=O)N[C@@H](CC(C)(C)C)C(=O)N1CCC[C@H]1C(=O)N[C@@H](CCC(=O)O)C(=O)N[C@H](CCCCNC(=O)CCc1cn(CCOCCOCCOCCOCCOCCOCCOCCOCCOCCOCCNC(=O)CCOCC(COCCC(=O)NCCOCCOCCOCCOCCOCCOCCOCCOCCOCCOCCn3cc(CCC(=O)NCCCC[C@H]4NC(=O)[C@H](CCC(=O)O)NC(=O)[C@@H]5CCCN5C(=O)[C@H](CC(C)(C)C)NC(=O)[C@@H](NC(C)=O)CSCCC(=O)N5CN6CN(C5)C(=O)CCSC[C@H](NC(=O)[C@H](Cc5ccc(O)cc5)NC(=O)[C@@H]5CCCN5C4=O)C(=O)N[C@@H](Cc4ccccc4)C(=O)N[C@@H](C)C(=O)N[C@@H](CC(=O)O)C(=O)N4CCC[C@H]4C(=O)N[C@@H](Cc4ccc(O)cc4)C(=O)N[C@@H](CCCC)C(=O)N[C@H](C(=O)N[C@@H](C)C(N)=O)CSCCC6=O)nn3)(COCCC(=O)NCCOCCOCCOCCOCCOCCOCCOCCOCCOCCOCCn3cc(CCC(=O)NCCCC[C@H]4NC(=O)[C@H](CCC(=O)O)NC(=O)[C@@H]5CCCN5C(=O)[C@H](CC(C)(C)C)NC(=O)[C@@H](NC(C)=O)CSCCC(=O)N5CN6CN(C5)C(=O)CCSC[C@H](NC(=O)[C@H](Cc5ccc(O)cc5)NC(=O)[C@@H]5CCCN5C4=O)C(=O)N[C@@H](Cc4ccccc4)C(=O)N[C@@H](C)C(=O)N[C@@H](CC(=O)O)C(=O)N4CCC[C@H]4C(=O)N[C@@H](Cc4ccc(O)cc4)C(=O)N[C@@H](CCCC)C(=O)N[C@H](C(=O)N[C@@H](C)C(N)=O)CSCCC6=O)nn3)COCCC(=O)NCCOCCOCCOCCOCCOCCOCCOCCOCCOCCOCCn3cc(CCC(=O)NCCC(=O)N[C@H]4CSCCC(=O)N5CN6CN(C5)C(=O)CCSC[C@H](NC(=O)[C@@H](CC(=O)O)NC(=O)[C@H](Cc5cccc7ccccc57)NC(=O)[C@@H]5CCCN5C4=O)C(=O)N[C@@H](CCSC)C(=O)N[C@@H](CCCCNC(=N)N)C(=O)N[C@@H](CC(=O)O)C(=O)N[C@@H](Cc4c[nH]c5ccccc45)C(=O)N[C@@H](CO)C(=O)N[C@@H]([C@@H](C)O)C(=O)N4CCC[C@H]4C(=O)N4C[C@H](O)C[C@H]4C(=O)N[C@@H](Cc4c[nH]c5ccccc45)C(=O)N[C@H](C(N)=O)CSCCC6=O)nn3)nn1)C(=O)N1CCC[C@H]1C(=O)N[C@@H](Cc1ccc(O)cc1)C(=O)N2` [BCY11022] returned a half-maximal effective concentration (EC50) in series [3] of 0.2 nM. For the same molecule, the Emax in series [3] (setting [4]) was 66 fold induction over background.
On to `CCCC[C@@H]1NC(=O)[C@H](Cc2ccc(O)cc2)NC(=O)[C@@H]2CCCN2C(=O)[C@H](CCC(=O)O)NC(=O)[C@H](C)NC(=O)[C@H](Cc2ccccc2)NC(=O)[C@@H]2CSCCC(=O)N3CN(CN(C3)C(=O)CCSC[C@H](NC(C)=O)C(=O)N[C@@H](CC(C)(C)C)C(=O)N3CCC[C@H]3C(=O)N[C@@H](CCC(=O)O)C(=O)N[C@H](CCCCNC(=O)CCc3cn(CCOCCOCCOCCN(CCOCCOCCOCCC(=O)N[C@H]4CSCCC(=O)N5CN6CN(C5)C(=O)CCSC[C@H](NC(=O)[C@@H](CC(=O)O)NC(=O)[C@H](Cc5cccc7ccccc57)NC(=O)[C@@H]5CCCN5C4=O)C(=O)N[C@@H](CCSC)C(=O)N[C@@H](CCCCNC(=N)N)C(=O)N[C@@H](CC(=O)O)C(=O)N[C@@H](Cc4c[nH]c5ccccc45)C(=O)N[C@@H](CO)C(=O)N[C@@H]([C@@H](C)O)C(=O)N4CCC[C@H]4C(=O)N4C[C@H](O)C[C@H]4C(=O)N[C@@H](Cc4c[nH]c5ccccc45)C(=O)N[C@H](C(N)=O)CSCCC6=O)CCOCCOCCOCCn4cc(CCC(=O)NCCCC[C@H]5NC(=O)[C@H](CCC(=O)O)NC(=O)[C@@H]6CCCN6C(=O)[C@H](CC(C)(C)C)NC(=O)[C@@H](NC(C)=O)CSCCC(=O)N6CN7CN(C6)C(=O)CCSC[C@H](NC(=O)[C@H](Cc6ccc(O)cc6)NC(=O)[C@@H]6CCCN6C5=O)C(=O)N[C@@H](Cc5ccccc5)C(=O)N[C@@H](C)C(=O)N[C@@H](CCC(=O)O)C(=O)N5CCC[C@H]5C(=O)N[C@@H](Cc5ccc(O)cc5)C(=O)N[C@@H](CCCC)C(=O)N[C@H](C(N)=O)CSCCC7=O)nn4)nn3)C(=O)N3CCC[C@H]3C(=O)N[C@@H](Cc3ccc(O)cc3)C(=O)N2)C(=O)CCSC[C@@H](C(N)=O)NC1=O` [BCY12487], for which the Emax in series [3] (setting [4]) is on record as 12 fold induction over background.
In series [3] (EC50 (nM), co-culture with HT1376, Table 2A), `CCCC[C@@H]1NC(=O)[C@H](Cc2ccc(O)cc2)NC(=O)[C@@H]2CCCN2C(=O)[C@H](CC(=O)O)NC(=O)[C@H](C)NC(=O)[C@H](Cc2ccccc2)NC(=O)[C@@H]2CSCCC(=O)N3CN(CN(C3)C(=O)CCSC[C@@H](C(=O)N[C@@H](C)C(N)=O)NC1=O)C(=O)CCSC[C@H](NC(C)=O)C(=O)N[C@@H](CC(C)(C)C)C(=O)N1CCC[C@H]1C(=O)N[C@@H](CCC(=O)O)C(=O)N[C@H](CCCCNC(=O)CCc1cn(CCOCCOCCOCCOCCOCCOCCOCCOCCOCCOCCNC(=O)c3cc(C(=O)NCCOCCOCCOCCOCCOCCOCCOCCOCCOCCOCCn4cc(CCC(=O)NCCCC[C@H]5NC(=O)[C@H](CCC(=O)O)NC(=O)[C@@H]6CCCN6C(=O)[C@H](CC(C)(C)C)NC(=O)[C@@H](NC(C)=O)CSCCC(=O)N6CN7CN(C6)C(=O)CCSC[C@H](NC(=O)[C@H](Cc6ccc(O)cc6)NC(=O)[C@@H]6CCCN6C5=O)C(=O)N[C@@H](Cc5ccccc5)C(=O)N[C@@H](C)C(=O)N[C@@H](CC(=O)O)C(=O)N5CCC[C@H]5C(=O)N[C@@H](Cc5ccc(O)cc5)C(=O)N[C@@H](CCCC)C(=O)N[C@H](C(=O)N[C@@H](C)C(N)=O)CSCCC7=O)nn4)cc(C(=O)NCCOCCOCCOCCOCCOCCOCCOCCOCCOCCOCCn4cc(CCC(=O)N[C@H]5CSCCC(=O)N6CN7CN(C6)C(=O)CCSC[C@H](NC(=O)[C@@H](CC(=O)O)NC(=O)[C@H](Cc6cccc8ccccc68)NC(=O)[C@@H]6CCCN6C5=O)C(=O)N[C@@H](CCSC)C(=O)N[C@@H](CCCCNC(=N)N)C(=O)N[C@@H](CC(=O)O)C(=O)N[C@@H](Cc5c[nH]c6ccccc56)C(=O)N[C@@H](CO)C(=O)N[C@@H]([C@@H](C)O)C(=O)N5CCC[C@H]5C(=O)N5C[C@H](O)C[C@H]5C(=O)N[C@@H](Cc5c[nH]c6ccccc56)C(=O)N[C@H](C(N)=O)CSCCC7=O)nn4)c3)nn1)C(=O)N1CCC[C@H]1C(=O)N[C@@H](Cc1ccc(O)cc1)C(=O)N2` [BCY10918] had an EC50 of 0.16 nM.

The values above are taken from US20230129258A1, “HETEROTANDEM BICYCLIC PEPTIDE COMPLEXES” (BicycleTx Limited, priority 2019, published 2023).
